Results taken from paper PMC7155171, “Probing the Open Global Health Chemical Diversity Library for Multistage-Active Starting Points for Next-Generation Antimalarials” (ACS Infectious Diseases, 2020).
Like-named read-outs stand apart in the source and are kept apart here.

How the values were obtained:
[1] = test system: P. falciparum Dd2 (PfLuc) line expressing firefly luciferase, asexual blood stage; test: microbe, parasite or virus in culture; assay type: cell-based, Plasmodium falciparum; conditions: for IC50 / Emax: Plasmodium falciparum
P. falciparum Dd2 = test: SYBR green I asexual blood stage proliferation assay (96 h); assay type: cell-based, Plasmodium falciparum; conditions: Plasmodium falciparum, DD2, 11-pt dose response, 96hr
[2] = DD2, read-out: CDD P. falciparum Luciferase ABS 11-pt Reconfirmation Dose Response (48hr): IC50 (μM), 11-pt dose response, 48hr
[3] = DD2, 8-pt dose response, 96hr, read-out: CDD P. falciparum Luciferase ABS 8-pt Reconfirmation Dose Response (96hr): IC50
[4] = DD2, 8-pt dose response, 96hr, read-out: CDD P. falciparum Luciferase ABS 8-pt Reconfirmation Dose Response (96hr): Maximum inhibition (%)
[5] = DD2, 11-pt dose response, 96hr, read-out: CDD P. falciparum Luciferase ABS 11-pt Reconfirmation Dose Response (96hr): IC50
[6] = DD2, 11-pt dose response, 96hr, read-out: CDD P. falciparum Luciferase ABS 11-pt Reconfirmation Dose Response (96hr): Maximum inhibition (%)
[7] = Sybr Green I, read-out: CDD P. falciparum Sybr Green I ABS 11-pt Reconfirmation Dose Response (96hr): IC50
[8] = Sybr Green I, read-out: CDD P. falciparum Sybr Green I ABS 11-pt Reconfirmation Dose Response (96hr): Maximum inhibition (%)
[9] = DD2, 11-pt dose response, 48hr, read-out: CDD P. falciparum Luciferase ABS 11-pt Reconfirmation Dose Response (48hr): Maximum inhibition (%)
[10] = DD2, read-out: P. falciparum Luciferase ABS 11-pt Reconfirmation Dose Response (48hr): IC50, 11-pt dose response, 48hr
[11] = DD2, 8-pt dose response, 96hr, read-out: P. falciparum Luciferase ABS 8-pt Reconfirmation Dose Response (96hr): IC50
[12] = DD2, 8-pt dose response, 96hr, read-out: P. falciparum Luciferase ABS 8-pt Reconfirmation Dose Response (96hr): Maximum inhibition (%)
[13] = DD2, 11-pt dose response, 48hr, read-out: P. falciparum Luciferase ABS 11-pt Reconfirmation Dose Response (48hr): Maximum inhibition (%)
[14] = DD2, 11-pt dose response, 96hr, read-out: P. falciparum Luciferase ABS 11-pt Reconfirmation Dose Response (96hr): IC50
[15] = DD2, 11-pt dose response, 96hr, read-out: P. falciparum Luciferase ABS 11-pt Reconfirmation Dose Response (96hr): Maximum inhibition (%)
[16] = read-out: P. falciparum Sybr Green I ABS 11-pt Reconfirmation Dose Response (96hr): IC50
[17] = read-out: P. falciparum Sybr Green I ABS 11-pt Reconfirmation Dose Response (96hr): Maximum inhibition (%)

SMILES	IC50 [1, 2] [µM]	IC50 [1, 3] [µM]	Emax [1, 4] [%]	IC50 [1, 5] [µM]	Emax [1, 6] [%]	IC50 (P. falciparum Dd2; [7]) [nM]	Emax (P. falciparum Dd2; [8]) [%]	Emax [1, 9] [%]	IC50 [1, 10] [µM]	IC50 [1, 11] [µM]	Emax [1, 12] [%]	Emax [1, 13] [%]	IC50 [1, 14] [µM]	Emax [1, 15] [%]	IC50 (P. falciparum Dd2; [16]) [nM]	Emax (P. falciparum Dd2; [17]) [%]	activity in ABS screens [1]	IC50 ([1]; 96 h incubation, Dd2 luciferase, read-out: 96 hour Pfluc IC50) [µM]
Clc1ccccc1C1(c2ccnc(C3CC3)n2)CCNCC1 [DDD01246037]	7.25	0.61	89.2	1.02	93.1	4410	78											
CC(C)Nc1cc(-c2c[nH]nc2C2CCN(C(=O)C3CC3)C2)ccn1 (centres unmarked) [DDD01057305]	5.35	0.29	95.7	1.73	98.4	8070	76.9											
CCCNc1cc(-c2c[nH]nc2C2CCN(C(=O)C3CCC3)C2)ccn1 (centres unmarked) [DDD01057089]	4.01	0.31	96.1	1.63	97.9	1340	61.5	86.1										
CC(C)N1CCC(NCc2cccnc2N(C)Cc2ccccc2)CC1 [DDD01257477]	> 12.5	0.45	89.2	3.84	87.8	163		61.1										
COc1ccc(C(C)NCc2ccsc2)cc1Cn1cccn1 (centres unmarked) [DDD01061827]	> 12.5	0.79	81.9	1.78	68.9	> 4160	58.7	38.8										
OCCN1CCC(CNCc2ccc(Br)cc2)CC1 [DDD01072406]	2.84	0.53	95.5	0.749	99.6	2010	92.7	94.9										
Cc1cccc(C2(NCCCS(C)(=O)=O)CCCC2)c1 [DDD01078804]	12.1	0.66	85	1.93	85.9	6570	74.2	56.6										
COc1cccc(CNCc2cccc(Cl)c2)c1O [DDD01038248]	4.63	0.99	92.4	1.9	98	2690	92.1	87.8										
COCCn1ccnc1CN(Cc1ccccn1)Cc1sccc1C [DDD01252459]									3.48	1.19	90.8	94.7	0.73	99.1	> 4160	87.8		
O=C(c1ccccc1)C1CCN(Cc2cc3c(cc2O)CCC3)CC1 [DDD01073482]	1.73	0.6	93.1	0.607	99.4	2300		94.9										
Brc1ccc(C2(CNCc3cc[nH]c3)CCOCC2)cc1 [DDD01076992]	0.715	0.62	82.1	0.407	99.6	3080	54	95.6										
CN(CCCO)Cc1cc(Cl)ccc1OCC(O)CN1CCCCCC1 (centres unmarked) [DDD01251957]	2.71	0.99	94.6	> 1.39	101	2750		99.2										
NC1CCCCN(Cc2cc(-c3ccccc3OC(F)(F)F)no2)C1 (centres unmarked) [DDD01244394]									> 4.16	1.45	88.9	84.8	> 1.39	97.5	> 4160	69.6		
Cc1cccc(C)c1Nc1noc2c1CN(C(=O)c1cn(C)cn1)CC2 [DDD01056797]	0.494	0.23	95.7	0.535	101	220	97.2	99.4										
Cc1cccc(C)c1Nc1noc2c1CN(C(=O)c1ccn(C)n1)CC2 [DDD01057030]	0.885	0.26	96.3	0.693	99.6	913	95.5	97.1										
COc1ccc(NC(=O)Nc2cnc(N3CCN(C)CC3)nc2)cc1Cl [DDD01028129]									> 12.5	1.39	94.1	14.8	4.41	57.8	> 12500	38.2		
Oc1ccc(Cl)cc1CNCc1ccccc1Cl [DDD01038243]	> 12.5	1.02	90.3	4.2	88.4	> 12500	34.6	59.4										
CCOc1ccc(Br)cc1C1CCCN1 (centres unmarked) [DDD01034787]	4.88	0.85	85.8	1.38	86.3	7590	78.7	59.1										
Cc1cc(C)cc(CN2C[C@H]3COC[C@H](N4CCN(C)CC4)[C@H]3C2)c1 [DDD01083756]	2.44	0.23		0.791	97.2	1080		79.9										
Cc1cc(C)c(CNCC(O)c2ccc(F)c(F)c2)c(C)c1 (centres unmarked) [DDD01065539]	0.316	0.15	96.6	0.143	100	312	99.5	97.4										
CC(O)c1cccc(Nc2nc(NCCO)c3ccccc3n2)c1 (centres unmarked) [DDD01037968]	2.9	0.29	92.4	0.739	99.6	3130	95.8	96.3									active in ABS screens	
c1cc(-c2n[nH]cc2-c2ccnc(N3CCCCCC3)n2)ccn1 [DDD01235864]	> 4.16	0.00697	93.5	0.0308	93.5	5.64		62.2										0.03
CCN1CCN(c2ccc(F)cc2C(C)NCc2ccccn2)CC1 (centres unmarked) [DDD01070491]	> 12.5	0.83	82.8	1.9		> 4160	73.8	53										
CCN1CCCN(S(=O)(=O)c2cc3ccccc3o2)CC1 [DDD01067562]	8.55	0.58	87.2	1.34	85.4	1460	73.1	65										
COCCN1CCC2(CC1)CC(NCc1ccc(C)s1)c1ccccc12 (centres unmarked) [DDD01082023]	7.58	0.63	90	1.55	96.4	2420	82.4											
Cc1noc(C)c1CNCc1ccccc1N(C)C1CCN(C)CC1 [DDD01074938]	> 12.5	0.59	91.9	1.55	86.7	2600	85.6	61.9										
CCC[C@H]1CN(S(=O)(=O)c2ccc(-c3c(C)noc3C)s2)C[C@@H]1N [DDD01245572]	> 12.5	1	81.3	2.92	74.1	5570	55.3	19										
O=C(CN1CCCC(c2ccn[nH]2)C1)Nc1nc2c(s1)CCC2 (centres unmarked) [DDD01079497]	0.618	0.22	90.5	0.451	97.6	192	73.2											
CCN1CCC2(CC1)CC(NCc1cccs1)c1ccccc1O2 (centres unmarked) [DDD01034117]	2.44	0.39	91.4	0.515	91.9	3400	78.6	72.4										
COCC(O)CN(C)c1ccnc2cc(Br)ccc12 (centres unmarked) [DDD01076306]	1.81	0.99		1.51	99.9	2430	95.6	97.7										
